Like-named read-outs stand apart in the source and are kept apart here.
Columns and labels:
[1] = cited from earlier work
Source text: Data were retrieved from registrative phase II/III clinical trials.

[2] = real-world use beyond approved indications, outpatient antimicrobial treatment; cited from earlier work
[3] = Population pharmacokinetic modelling of dalbavancin plasma concentrations (TDM) in patients; conditions: for Q, inter-compartmental clearance / V1, central volume of distribution / V2, peripheral volume of distribution: typical value (%RSE)
Method: The study was approved by the local Ethics Committee (registration number 897/2021/Oss/AOUBo). Signed informed consent was waived due to the retrospective and observational nature of the investigation according to hospital agreements.
The dose amount (1000 mg or 1500 mg) was arbitrarily decided by the infectious diseases consultant at each patient center. The decision to administer any additional doses was taken in relation to the clinical evaluation of disease progression after at least 4 weeks from the administration of the second dose and it was based on the patient’s physical examination and on the trend of inflammatory biomarkers.
Blood samples were collected at different time-points after the second dose and sent to our lab for analysis. […] The lower limit of quantification was 0.5 mg/L.
At a first stage, a basic model was developed, by comparing one-, two- and three-compartment models with linear elimination. All individual parameters were log-normally distributed. Exponential random effects were assumed to describe inter-individual variability. Correlations between random effects were tested in the variance–covariance matrix and implemented into the structural model accordingly. Residual variability was tested according to three different error models (constant, proportional and combined error model).
The following covariates were tested on the PK parameters of the base model: age, gender, weight, height, serum albumin, serum creatinine and CLCR. The parameter–covariate relationships were modeled as additive or proportional shifts from the reference category for binary covariates, whereas the effect of continuous covariates was modeled using a power function. A covariate was included in the model according to the results of the likelihood ratio test (LRT) and if a reduction in the BIC and a decrease in the interpatient variability of the fixed-effect parameters were obtained. Descriptions of the pharmacokinetic model building and covariate analysis are reported in the Supplementary Materials.

[4] = cited from earlier work; remark: listed apart in the source
[5] = three-compartment model, 703 patients with ABSSSI, ref Carrothers et al. [12]
[6] = median (min–max) of population, 69 patients, two-compartment final model

For `CN[C@H]1C(=O)N[C@@H]2Cc3ccc(cc3)Oc3cc4cc(c3O[C@@H]3O[C@H](C(=O)O)[C@@H](O)[C@H](O)[C@H]3NC(=O)CCCCCCCCC(C)C)Oc3ccc(cc3Cl)[C@@H](O)[C@@H]3NC(=O)[C@H](NC(=O)[C@@H]4NC(=O)[C@@H](NC2=O)c2cc(cc(O)c2Cl)Oc2cc1ccc2O)c1ccc(O)c(c1)-c1c(O[C@H]2O[C@H](CO)[C@@H](O)[C@H](O)[C@@H]2O)cc(O)cc1[C@@H](C(=O)NCCCN(C)C)NC3=O` [dalbavancin], the elimination half-life [1] is listed as greater than 180 h, the “population CL” value [1, 5] is listed as 0.053 L/h and the “total V” value [1, 5] is listed as 15.0 L. For the same compound, the “population CL” value ([1]; two-compartment model, 532 patients (ABSSSI, bloodstream infections), ref Buckwalter et al. [11]) was 0.057 L/h, the “total V” value ([1]; two-compartment model, 532 patients, ref Buckwalter et al. [11]) was 15.9 L and the “overall clinical success rate” value [2] was “greater than 80%”. For the same compound, the “Q, inter-compartmental clearance” value ([3]; base model) was 0.026 (17.9) L/h, the “V1, central volume of distribution” value ([3]; base model) was 6.15 (4.79) L and the “V2, peripheral volume of distribution” value ([3]; base model) was 10.51 (13.7) L. The “Q, inter-compartmental clearance” value ([3]; final model) was 0.026 (18.1) L/h, the “V1, central volume of distribution” value ([3]; final model) was 6.14 (5.26) L and the “V2, peripheral volume of distribution” value ([3]; final model) was 9.52 (19.0) L. The “CL, total body clearance” value ([3]; human, in vivo) was 0.029 (11.6) L/h, the Vd ([3]; human, in vivo) was 15.7 L and the clearance ([3]; human, in vivo, CL, total body clearance) was 0.683 mL/min. The clearance ([3]; human, in vivo, population CL) was 0.717 mL/min, the “population V1” value [3, 6] was 6.21 (5.10–7.19) L and the “population V2” value [3, 6] was 9.48 (7.60–11.89) L. The “penetration rate into bone tissue” value [4] was 13.1%.

— article PMC9331863 (Antibiotics, 2022)
